In PubChem BioAssay (NCI):
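These data come from cells grown in 96-well plates and exposed to compound for 48 hours at five concentrations. The concentration for 50% growth inhibition is given as GI50. TGI marks complete inhibition of growth.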

Key:
Assay in all cases: growth of human tumour cells (NCI), 48 h
OVCAR-4 ovarian = tested on: OVCAR-4 ovarian
KM12 colon = tested on: KM12 colon
A498 renal = tested on: A498 renal
MDA-MB-231 breast = tested on: MDA-MB-231 breast
ACHN renal = tested on: ACHN renal
SNB-75 CNS = tested on: SNB-75 CNS
HCC-2998 colon = tested on: HCC-2998 colon
RPMI-8226 leukemia = tested on: RPMI-8226 leukemia
HT29 colon = tested on: HT29 colon
SW-620 colon = tested on: SW-620 colon

SMILES: C=c1c(OC)c(OC)c(O)c2c1=c1cc([N+](=O)[O-])cc(OC)c1=N2
- TGI (OVCAR-4 ovarian): > 100 µM
- TGI (KM12 colon): > 100 µM
- TGI (A498 renal): > 100 µM
- TGI (MDA-MB-231 breast): > 100 µM
- TGI (ACHN renal): > 100 µM
- TGI (SNB-75 CNS): > 100 µM
- TGI (HCC-2998 colon): > 100 µM
- TGI (RPMI-8226 leukemia): > 100 µM
- TGI (HT29 colon): > 100 µM
- TGI (SW-620 colon): > 100 µM

SMILES: Brc1ccc2c(-c3csc(-c4c[nH]c5ccc(Br)cc45)n3)c[nH]c2c1
- TGI (OVCAR-4 ovarian): 23.9 µM
- TGI (KM12 colon): 6.4 µM
- TGI (A498 renal): 8.42 µM
- TGI (MDA-MB-231 breast): > 24.6 µM
- TGI (ACHN renal): 11.1 µM
- TGI (SNB-75 CNS): 24.9 µM
- TGI (HCC-2998 colon): 5.51 µM
- TGI (RPMI-8226 leukemia): > 21.4 µM
- TGI (HT29 colon): 3.35 µM
- TGI (SW-620 colon): 28.3 µM

SMILES: N#Cc1c(-c2ccc(F)cc2)nc(N/N=C/c2c[nH]c3ccccc23)nc1N1CCOCC1
- GI50 (OVCAR-4 ovarian): 16.1 µM
- TGI (OVCAR-4 ovarian): 62.8 µM
- GI50 (KM12 colon): 4.96 µM
- TGI (KM12 colon): 68.9 µM
- GI50 (A498 renal): 1.33 µM
- TGI (A498 renal): 11.5 µM
- GI50 (MDA-MB-231 breast): 5.16 µM
- TGI (MDA-MB-231 breast): 56.4 µM
- GI50 (ACHN renal): 2.24 µM
- TGI (ACHN renal): 30.7 µM
- GI50 (SNB-75 CNS): 3.45 µM
- TGI (SNB-75 CNS): 38.4 µM
- GI50 (HCC-2998 colon): 9.91 µM
- TGI (HCC-2998 colon): > 100 µM
- GI50 (RPMI-8226 leukemia): 3.35 µM
- TGI (RPMI-8226 leukemia): > 100 µM
- GI50 (HT29 colon): 1.11 µM
- TGI (HT29 colon): 22.6 µM
- GI50 (SW-620 colon): 1.58 µM
- TGI (SW-620 colon): 4.69 µM

SMILES: CCOC(=O)C(CC#Cc1ccc(C#CCC(NC(C)=O)C(=O)OCC)cc1)NC(C)=O (configuration not stated)
- TGI (OVCAR-4 ovarian): > 100 µM
- TGI (KM12 colon): > 100 µM
- TGI (A498 renal): > 100 µM
- TGI (MDA-MB-231 breast): > 100 µM
- TGI (ACHN renal): > 100 µM
- TGI (SNB-75 CNS): > 100 µM
- TGI (HCC-2998 colon): > 100 µM
- TGI (RPMI-8226 leukemia): > 100 µM
- TGI (HT29 colon): > 100 µM
- TGI (SW-620 colon): > 100 µM

SMILES: Cc1nn(-c2cc(Cl)ccc2[N+](=O)[O-])c(C)c1Cl
- TGI (OVCAR-4 ovarian): > 100 µM
- TGI (KM12 colon): > 100 µM
- TGI (A498 renal): > 100 µM
- TGI (MDA-MB-231 breast): > 100 µM
- TGI (ACHN renal): > 100 µM
- TGI (SNB-75 CNS): > 100 µM
- TGI (HCC-2998 colon): > 100 µM
- TGI (RPMI-8226 leukemia): > 100 µM
- TGI (HT29 colon): > 100 µM
- TGI (SW-620 colon): > 100 µM

SMILES: Cc1cn(C(C)OCCN2C(=O)c3ccccc3C2=O)c(=O)[nH]c1=O (configuration not stated)
- TGI (OVCAR-4 ovarian): > 100 µM
- TGI (KM12 colon): > 100 µM
- TGI (A498 renal): > 100 µM
- TGI (MDA-MB-231 breast): > 100 µM
- TGI (ACHN renal): > 100 µM
- TGI (SNB-75 CNS): > 100 µM
- TGI (HCC-2998 colon): > 100 µM
- TGI (RPMI-8226 leukemia): > 100 µM
- TGI (HT29 colon): > 100 µM
- TGI (SW-620 colon): > 100 µM

SMILES: COc1cc(I)c2c3c1OC1C34CCN(C)C(C2)C4=CC(I)C1(OC)OC (configuration not stated)
- TGI (OVCAR-4 ovarian): 55.9 µM
- TGI (KM12 colon): 40 µM
- TGI (A498 renal): 86.4 µM
- TGI (MDA-MB-231 breast): 46.3 µM
- TGI (ACHN renal): 98.3 µM
- TGI (SNB-75 CNS): 31.2 µM
- TGI (HCC-2998 colon): 28.9 µM
- TGI (RPMI-8226 leukemia): 49.7 µM
- TGI (HT29 colon): 83.6 µM
- TGI (SW-620 colon): 52.2 µM

SMILES: COC(=O)c1ccc(C=Nc2ccc(S(N)(=O)=O)cc2)cc1
- TGI (OVCAR-4 ovarian): > 100 µM
- TGI (KM12 colon): > 100 µM
- TGI (A498 renal): > 100 µM
- TGI (MDA-MB-231 breast): > 100 µM
- TGI (ACHN renal): > 100 µM
- TGI (SNB-75 CNS): > 100 µM
- TGI (HCC-2998 colon): > 100 µM
- TGI (RPMI-8226 leukemia): 86.2 µM
- TGI (HT29 colon): > 100 µM

SMILES: O=c1c(-c2ccc(Cl)cc2)nnc2n(Cc3ccccc3)c3ccccc3n12
- TGI (OVCAR-4 ovarian): 30.7 µM
- TGI (KM12 colon): > 100 µM
- TGI (A498 renal): 69.5 µM
- TGI (MDA-MB-231 breast): 67.8 µM
- TGI (ACHN renal): > 100 µM
- TGI (SNB-75 CNS): 44.9 µM
- TGI (HCC-2998 colon): > 100 µM
- TGI (HT29 colon): > 100 µM
- TGI (SW-620 colon): > 100 µM

SMILES: CN(C)S(=O)(=O)Nc1nnc(S(N)(=O)=O)s1
- TGI (OVCAR-4 ovarian): > 100 µM
- TGI (KM12 colon): > 100 µM
- TGI (A498 renal): > 100 µM
- TGI (MDA-MB-231 breast): > 100 µM
- TGI (ACHN renal): > 100 µM
- TGI (SNB-75 CNS): > 100 µM
- TGI (HCC-2998 colon): > 100 µM
- TGI (RPMI-8226 leukemia): > 100 µM
- TGI (HT29 colon): > 100 µM
- TGI (SW-620 colon): > 100 µM

SMILES: CCOC(=O)C(NC(=O)CC(C)C)(N1CCN(c2cc3c(cc2F)c(=O)c(C(=O)O)cn3C2CC2)CC1)C(F)(F)F (configuration not stated)
- TGI (OVCAR-4 ovarian): 68 µM
- TGI (KM12 colon): 39.4 µM
- TGI (A498 renal): 16.8 µM
- TGI (MDA-MB-231 breast): 46.1 µM
- TGI (ACHN renal): 34.6 µM
- TGI (SNB-75 CNS): 64.5 µM
- TGI (HCC-2998 colon): 28.4 µM
- TGI (RPMI-8226 leukemia): 78.6 µM
- TGI (HT29 colon): 91.6 µM
- TGI (SW-620 colon): 74.1 µM

SMILES: CCC(C)C(=O)OC1CC2(C)C(c3ccoc3)OC(=O)CC23OC2(C)OC34C(OC(=O)C(C)C)C3(O)C(OC(=O)C5(C)OC5C)C5(C)CC3(O)C(C)(C5CC(=O)OC)C14O2 (configuration not stated)
- TGI (OVCAR-4 ovarian): > 100 µM
- TGI (KM12 colon): > 100 µM
- TGI (A498 renal): > 100 µM
- TGI (MDA-MB-231 breast): > 100 µM
- TGI (ACHN renal): > 100 µM
- TGI (SNB-75 CNS): > 100 µM
- TGI (HCC-2998 colon): > 100 µM
- TGI (HT29 colon): > 100 µM
- TGI (SW-620 colon): > 100 µM

SMILES: Clc1ccc(OCc2nnc(CCCCCCCCc3nnc(COc4ccc(Cl)cc4)n3Nc3ccccc3)n2Nc2ccccc2)cc1
- TGI (OVCAR-4 ovarian): > 100 µM
- TGI (KM12 colon): 36.9 µM
- TGI (A498 renal): > 100 µM
- TGI (MDA-MB-231 breast): > 100 µM
- TGI (ACHN renal): > 93 µM
- TGI (SNB-75 CNS): > 100 µM
- TGI (HCC-2998 colon): > 68.7 µM
- TGI (RPMI-8226 leukemia): 5.13 µM
- TGI (HT29 colon): 34.3 µM
- TGI (SW-620 colon): > 100 µM

SMILES: NC1CNC(=O)c2c(Cl)sc(Cl)c21 (configuration not stated)
- TGI (OVCAR-4 ovarian): > 100 µM
- TGI (KM12 colon): > 100 µM
- TGI (A498 renal): > 100 µM
- TGI (MDA-MB-231 breast): > 100 µM
- TGI (ACHN renal): > 100 µM
- TGI (SNB-75 CNS): > 100 µM
- TGI (HCC-2998 colon): > 100 µM
- TGI (RPMI-8226 leukemia): > 100 µM
- TGI (HT29 colon): > 100 µM
- TGI (SW-620 colon): > 100 µM

SMILES: O=C1CSC(c2cccs2)N1c1nc2cc3sc(N4C(=O)CSC4c4cccs4)nc3cc2s1 (configuration not stated)
- TGI (OVCAR-4 ovarian): > 50 µM
- TGI (KM12 colon): > 50 µM
- TGI (A498 renal): > 50 µM
- TGI (MDA-MB-231 breast): > 50 µM
- TGI (ACHN renal): > 50 µM
- TGI (SNB-75 CNS): > 50 µM
- TGI (HCC-2998 colon): > 50 µM
- TGI (RPMI-8226 leukemia): > 50 µM
- TGI (HT29 colon): > 50 µM
- TGI (SW-620 colon): > 50 µM
